For the assay, the target named is phosphorylated form of full length BTK (active BTK) (Homo sapiens (Human), UniProt Q06187). The assay can be described thus: Mobility shift assay (MSA, Caliper LabChip), active BTK assay. The assay is classed as biochemical. The following applies: Assay type B (MSA using active BTK). The method, then: The active BTK assay consists of phosphorylated form of full length BTK. […] The enzyme inhibitor complexes is incubated, before the kinase activation reaction is initiated.
Chain of phosphorylated form of full length BTK (active BTK) (Q06187 whole entry): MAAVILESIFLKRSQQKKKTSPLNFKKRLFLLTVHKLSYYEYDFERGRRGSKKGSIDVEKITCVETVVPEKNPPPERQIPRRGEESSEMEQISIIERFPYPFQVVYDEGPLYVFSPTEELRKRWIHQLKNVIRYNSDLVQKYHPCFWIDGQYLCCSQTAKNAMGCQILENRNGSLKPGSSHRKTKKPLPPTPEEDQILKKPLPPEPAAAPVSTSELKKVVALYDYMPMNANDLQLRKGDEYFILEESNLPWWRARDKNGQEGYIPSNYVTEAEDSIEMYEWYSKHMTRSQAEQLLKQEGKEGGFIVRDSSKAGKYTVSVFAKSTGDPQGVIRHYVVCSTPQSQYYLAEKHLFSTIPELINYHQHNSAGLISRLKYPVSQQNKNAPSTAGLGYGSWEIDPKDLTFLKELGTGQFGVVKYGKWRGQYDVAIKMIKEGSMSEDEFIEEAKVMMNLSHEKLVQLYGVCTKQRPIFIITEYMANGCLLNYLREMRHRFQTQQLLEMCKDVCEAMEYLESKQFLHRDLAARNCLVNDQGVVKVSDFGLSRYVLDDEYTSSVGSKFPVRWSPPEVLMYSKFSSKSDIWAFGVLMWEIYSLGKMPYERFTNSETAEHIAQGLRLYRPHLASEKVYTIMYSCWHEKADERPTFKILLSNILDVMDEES
Mobility Shift Assay (MSA)
The active BTK assay consisted of phosphorylated form of full length BTK. […] The enzyme inhibitor complexes was incubated for 30 minutes at the room temperature and the kinase activation reaction was initiated by the addition of 1 μM Srctide peptide substrate and […].

Regarding `CC(=O)N[C@H](C)[C@@H]1CC[C@@H](Nc2ncnc3[nH]cc(C(=O)c4ccc(Oc5ccccc5)cc4Cl)c23)CO1` [Compound I-195, N—((R)-1-((2S,5R)-5-((5-(2-chloro-4-phenoxybenzoyl)-7H-pyrrolo[2,3-d]pyrimidin-4-yl)amino)tetrahydro-2H-pyran-2-yl)ethyl)acetamide], the 50% inhibitory concentration (IC50) (usually the concentration needed to halve the response being measured) is 2.2 nM.

As for `N[C@H]1C[C@@H](Nc2ncnc3[nH]cc(C(=O)c4ccc(Oc5ccccc5)cc4)c23)C1` [Compound I-190, (4-((cis-3-aminocyclobutyl)amino)-7H-pyrrolo[2,3-d]pyrimidin-5-yl)(4-phenoxyphenyl)methanone], the IC50 was determined as 17 nM. To `COC[C@]1(O)CC[C@@H](Nc2ncnc3[nH]cc(C(=O)c4ccccc4Cl)c23)CC1` [Compound I-108, (2-chlorophenyl)(4-((cis-4-hydroxy-4-(methoxymethyl)cyclohexyl)amino)-7H-pyrrolo[2,3-d]pyrimidin-5-yl)methanone] belongs 7 nM; to `CC(=O)N[C@@H](C)[C@@H]1CC[C@@H](Nc2ncnc3[nH]cc(C(=O)c4ccc(Oc5ccccc5)cc4)c23)CO1` [Compound I-198, N-((S)-1-((2S,5R)-5-((5-(4-phenoxybenzoyl)-7H-pyrrolo[2,3-d]pyrimidin-4-yl)amino)tetrahydro-2H-pyran-2-yl)ethyl)acetamide], 2.6 nM. To `C[C@H](O)C(=O)NC[C@@H]1CC[C@@H](Nc2ncnc3[nH]cc(C(=O)c4ccc(Oc5ccccc5)cc4Cl)c23)CO1` [Compound I-210, (S)—N-(((2S,5R)-5-((5-(2-chloro-4-phenoxybenzoyl)-7H-pyrrolo[2,3-d]pyrimidin-4-yl)amino)tetrahydro-2H-pyran-2-yl)methyl)-2-hydroxypropanamide] belongs 1.9 nM; to `CC(=O)NC[C@@H]1CC[C@@H](Nc2ncnc3[nH]cc(C(=O)c4ccccc4C)c23)CO1` [Compound I-119, N-(((2S,5R)-5-((5-(2-methylbenzoyl)-7H-pyrrolo[2,3-d]pyrimidin-4-yl)amino)tetrahydro-2H-pyran-2-yl)methyl)acetamide], 5.1 nM. Next, `CC(O)CCCCCC(=O)N[C@H]1CC[C@@H](Nc2ncnc3[nH]cc(C(=O)c4ccc(Oc5ccccc5)cc4Cl)c23)CC1` (mixture of isomers) [Compound I-214, rac-N-(cis-4-((5-(2-chloro-4-phenoxybenzoyl)-7H-pyrrolo[2,3-d]pyrimidin-4-yl)amino)cyclohexyl)-7-hydroxyoctanamide]: 7.4 nM; `C[C@@H](O)C(=O)N[C@H]1CC[C@@H](Nc2ncnc3[nH]cc(C(=O)c4ccc(Oc5ccccc5)cc4)c23)CC1` [Compound I-206, (R)-2-hydroxy-N-(cis-4-((5-(4-phenoxybenzoyl)-7H-pyrrolo[2,3-d]pyrimidin-4-yl)amino)cyclohexyl)propanamide]: 1.8 nM. For the compound `CS(=O)(=O)Nc1cccc(C(=O)c2c[nH]c3ncnc(N[C@H]4CC[C@@H](N)CC4)c23)c1` [Compound I-120, N-(3-(4-((cis-4-aminocyclohexyl)amino)-7H-pyrrolo[2,3-d]pyrimidine-5-carbonyl)phenyl)methanesulfonamide], the IC50 came out at 121 nM.

With `CN(C)CC(=O)N[C@H]1CC[C@@H](Nc2ncnc3[nH]cc(C(=O)c4ccc(Oc5ccccc5)cc4Cl)c23)CC1` [Compound I-181, N-(cis-4-((5-(2-chloro-4-phenoxybenzoyl)-7H-pyrrolo[2,3-d]pyrimidin-4-yl)amino)cyclohexyl)-2-(dimethylamino)acetamide], the concentration for half-maximal inhibition (IC50) was 0.98 nM. In the case of `O=C(c1ccc(Oc2ccccc2)cc1Cl)c1c[nH]c2ncnc(N[C@H]3CC[C@@H](O)[C@@H](O)C3)c12` (racemic) [Compound I-179, rac-(2-chloro-4-phenoxyphenyl)(4-(((1S,3S,4R)-3,4-dihydroxycyclohexyl)amino)-7H-pyrrolo[2,3-d]pyrimidin-5-yl)methanone], the 50% inhibitory concentration (IC50) came out at 1.8 nM. On to `CC(=O)NC[C@@H]1CC[C@@H](Nc2ncnc3[nH]cc(C(=O)c4ccc(Oc5ccccc5)cc4Cl)c23)CO1` [Compound I-127, N-(((2S,5R)-5-((5-(2-chloro-4-phenoxybenzoyl)-7H-pyrrolo[2,3-d]pyrimidin-4-yl)amino)tetrahydro-2H-pyran-2-yl)methyl)acetamide], for which the half-inhibitory concentration (IC50) came to 1.63 nM. Next, `CC(=O)N[C@H]1C[C@H](Nc2ncnc3[nH]cc(C(=O)c4ccc(Oc5ccccc5)cc4)c23)C1` [Compound I-199, N-(trans-3-((5-(4-phenoxybenzoyl)-7H-pyrrolo[2,3-d]pyrimidin-4-yl)amino)cyclobutyl)acetamide]: 6.8 nM; `COC[C@]1(O)CC[C@H](Nc2ncnc3[nH]cc(C(=O)c4ccccc4Cl)c23)CC1` [Compound I-107, (2-chlorophenyl)(4-((trans-4-hydroxy-4-(methoxymethyl)cyclohexyl)amino)-7H-pyrrolo[2,3-d]pyrimidin-5-yl)methanone]: 12 nM. As for `C[C@]1(O)CC[C@H](Nc2ncnc3[nH]cc(C(=O)c4ccc(Oc5ccccc5)cc4Cl)c23)CC1` [Compound I-201, (2-chloro-4-phenoxyphenyl)(4-((trans-4-hydroxy-4-methylcyclohexyl)amino)-7H-pyrrolo[2,3-d]pyrimidin-5-yl)methanone], the IC50 was 1.5 nM. Take `CC(=O)NC[C@@H]1CC[C@@H](Nc2ncnc3[nH]cc(C(=O)c4ccc(Oc5ccccc5)cc4)c23)CO1` [Compound I-205, N-(((2S,5R)-5-((5-(4-phenoxybenzoyl)-7H-pyrrolo[2,3-d]pyrimidin-4-yl)amino)tetrahydro-2H-pyran-2-yl)methyl)acetamide]: the IC50 is 1.6 nM. Regarding `CC1(N)CN([C@H]2CC[C@@H](Nc3ncnc4[nH]cc(C(=O)c5ccccc5Cl)c34)CC2)C1` [Compound I-113, (4-((cis-4-(3-amino-3-methylazetidin-1-yl)cyclohexyl)amino)-7H-pyrrolo[2,3-d]pyrimidin-5-yl)(2-chlorophenyl)methanone], the IC50 is 3.6 nM. As to `C[C@H](NC(=O)[C@@H](C)O)[C@@H]1CC[C@@H](Nc2ncnc3[nH]cc(C(=O)c4ccc(Oc5ccccc5)cc4Cl)c23)CO1` [Compound I-213, (R)—N—((S)-1-((2S,5R)-5-((5-(2-chloro-4-phenoxybenzoyl)-7H-pyrrolo[2,3-d]pyrimidin-4-yl)amino)tetrahydro-2H-pyran-2-yl)ethyl)-2-hydroxypropanamide], the IC50 was 2.5 nM. Next, `C[C@H](O)C(=O)NC[C@@H]1CC[C@@H](Nc2ncnc3[nH]cc(C(=O)c4ccc(Oc5ccccc5)cc4)c23)CO1` [Compound I-211, (S)-2-hydroxy-N-(((2S,5R)-5-((5-(4-phenoxybenzoyl)-7H-pyrrolo[2,3-d]pyrimidin-4-yl)amino)tetrahydro-2H-pyran-2-yl)methyl)propanamide]: 2.9 nM; `C[C@H](O)C(=O)N[C@@H](C)[C@@H]1CC[C@@H](Nc2ncnc3[nH]cc(C(=O)c4ccc(Oc5ccccc5)cc4Cl)c23)CO1` [Compound I-208, (S)—N—((S)-1-((2S,5R)-5-((5-(2-chloro-4-phenoxybenzoyl)-7H-pyrrolo[2,3-d]pyrimidin-4-yl)amino)tetrahydro-2H-pyran-2-yl)ethyl)-2-hydroxypropanamide]: 3.1 nM. To `CC1(N)CN([C@H]2CC[C@H](Nc3ncnc4[nH]cc(C(=O)c5ccccc5Cl)c34)CC2)C1` [Compound I-114, (4-((trans-4-(3-amino-3-methylazetidin-1-yl)cyclohexyl)amino)-7H-pyrrolo[2,3-d]pyrimidin-5-yl)(2-chlorophenyl)methanone] belongs 23 nM; to `C[C@H](O)C(=O)N[C@@H](C)[C@@H]1CC[C@@H](Nc2ncnc3[nH]cc(C(=O)c4ccc(Oc5ccccc5)cc4)c23)CO1` [Compound I-209, (S)-2-hydroxy-N-((S)-1-((2S,5R)-5-((5-(4-phenoxybenzoyl)-7H-pyrrolo[2,3-d]pyrimidin-4-yl)amino)tetrahydro-2H-pyran-2-yl)ethyl)propanamide], 4 nM. To `C[C@@H](O)[C@@H]1CC[C@@H](Nc2ncnc3[nH]cc(C(=O)c4ccc(Oc5cccc(Cl)c5)cc4Cl)c23)CO1` [Compound I-183, (2-chloro-4-(3-chlorophenoxy)phenyl)(4-(((3R,6S)-6-((R)-1-hydroxyethyl)tetrahydro-2H-pyran-3-yl)amino)-7H-pyrrolo[2,3-d]pyrimidin-5-yl)methanone] belongs 2.2 nM; to `CN(C)C[C@]1(O)CC[C@@H](Nc2ncnc3[nH]cc(C(=O)c4ccc(Oc5ccccc5)cc4Cl)c23)CC1` [Compound I-178, (2-chloro-4-phenoxyphenyl)(4-((cis-4-((dimethylamino)methyl)-4-hydroxycyclohexyl)amino)-7H-pyrrolo[2,3-d]pyrimidin-5-yl)methanone], 2.2 nM.
